Data: the supplement of paper PMC11061612

Experiments:
Test in all cases: Bliss excess, mean over the matrix (fraction); higher = more synergy
[1] = system: CML-T1 (Chronic Myelogenous Leukemia)
How it was run: (§1)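 Cell lines in DMEM/F12 or RPMI with 10% FBS were plated in 1536-well plates, held 24 hours at 37°C, 5% CO2, then given two-drug dose matrices for 72 hours (DMSO typically 0.2%). Viability was read by CellTiter-Glo 2.0 luminescence and scaled as inhibition from 0 (vehicle wells) to 1 (blank wells). Combination Emax is the second-highest inhibition in the matrix; Bliss excess is observed combination effect minus expected EA + EB − EA·EB, EA and EB being single-agent effects.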

[2] = system: RL95-2 (Endometrial Carcinoma)
How it was run: as §1

[3] = system: PC-14 (Lung Adenocarcinoma)
How it was run: as §1

[4] = system: LOUCY (T-Lymphoblastic Leukemia)
How it was run: as §1

[5] = system: HTC-C3 (Thyroid Gland Carcinoma)
How it was run: as §1

[6] = system: NCI-H1623 (Lung Adenocarcinoma)
How it was run: as §1

[7] = system: ES-2 (Ovarian Carcinoma)
How it was run: as §1

[8] = system: SW684 (Other Solid Carcinomas)
How it was run: as §1

[9] = system: FLO-1 (Esophageal Adenocarcinoma)
How it was run: as §1

[10] = system: Calu-6 (Non-Small Cell Lung Carcinoma)
How it was run: as §1

[11] = system: NCI-H1563 (Lung Adenocarcinoma)
How it was run: as §1

[12] = system: BALL-1 (B-Lymphoblastic Leukemia)
How it was run: as §1

[13] = system: Becker (Low Grade Glioma)
How it was run: as §1

[14] = system: 786-0 (Kidney Carcinoma)
How it was run: as §1

[15] = system: COLO-684 (Endometrial Carcinoma)
How it was run: as §1

[16] = system: NCI-H196 (Small Cell Lung Carcinoma)
How it was run: as §1

[17] = system: RERF-LC-KJ (Lung Adenocarcinoma)
How it was run: as §1

[18] = system: CHL-1 (Melanoma)
How it was run: as §1

[19] = system: NCI-H810 (Non-Small Cell Lung Carcinoma)
How it was run: as §1

[20] = system: LAMA-84 (Chronic Myelogenous Leukemia)
How it was run: as §1

SMILES | Bliss excess [1] | Bliss excess [2] | Bliss excess [3] | Bliss excess [4] | Bliss excess [5] | Bliss excess [6] | Bliss excess [7] | Bliss excess [8] | Bliss excess [9] | Bliss excess [10] | Bliss excess [11] | Bliss excess [12] | Bliss excess [13] | Bliss excess [14] | Bliss excess [15] | Bliss excess [16] | Bliss excess [17] | Bliss excess [18] | Bliss excess [19] | Bliss excess [20]
NC1(C(=O)N[C@@H](CCO)c2ccc(Cl)cc2)CCN(c2ncnc3[nH]ccc23)CC1 [Capivasertib] + C[C@@H]1COCCN1C2=NC(=NC(=C2)C3(CC3)[S@](=N)(=O)C)C4=C5C=CNC5=NC=C4 [AZD6738] (first compound max 10 µM, 7x7, partner max 10 µM) | -0.0774 | -0.0803 | -0.0355 | -0.0482 | -0.0323 | -0.0522 | -0.0716 | -0.0465 | -0.0933 | -0.0777 | -0.0357 | -0.0066 | -0.0135 | -0.0708 | -0.0262 | -0.0265 | -0.0722 | -0.0329 | -0.0575 | 0.0117
COc1cccc(OCCCN)c1-c1cc(Nc2cnc(C#N)cn2)n[nH]1 [Prexasertib] + Cc1cc2ncnn2cc1Nc1ncc2c(n1)n(C1CCOCC1)c(=O)n2C [AZD7648] (first compound max 1 µM, 7x7, partner max 10 µM) | -0.0175 | -0.0263 | -0.037 | -0.0021 | -0.018 | -0.0588 | -0.0357 | -0.0408 | -0.0817 | -0.0354 | -0.0146 | 0.0202 | -0.0081 | -0.0276 | -0.0547 | -0.0361 | 0.0558 | -0.0122 | 0.0108 | -0.0208
CCc1c2c(nc3ccc(O)cc13)-c1cc3c(c(=O)n1C2)COC(=O)[C@]3(O)CC [SN-38] + O=C(c1cc(Cc2n[nH]c(=O)c3ccccc23)ccc1F)N1CCN(C(=O)C2CC2)CC1 [Olaparib] (first compound max 0.3 µM, 7x7, partner max 10 µM) | -0.0065 |  | 0.0707 | 0.0204 | 0.0591 |  |  | -0.0048 | 0.0371 | 0.0211 |  | 0.0629 | 0.083 | 0.0937 | -0.0188 |  |  | 0.0683 | 0.107 | 0.0833
CC1(C)CCC(CN2CCN(c3ccc(C(=O)NS(=O)(=O)c4ccc(NCC5CCOCC5)c([N+](=O)[O-])c4)c(Oc4cnc5[nH]ccc5c4)c3)CC2)=C(c2ccc(Cl)cc2)C1 [Venetoclax] + COc1cc(Nc2ncc3c(n2)-c2ccc(Cl)cc2C(c2c(F)cccc2OC)=NC3)ccc1C(=O)O [Alisertib] (first compound max 1 µM, 7x7, partner max 10 µM) | 0.0154 | 0.0892 | 0.0366 | 0.0646 | -0.0285 | 0.045 | -0.0017 | -0.0688 | -0.0379 | -0.0071 | -0.0523 | 0.0181 | 0.0786 | -0.0114 | -0.0153 | -0.0371 | -0.0527 | 0.238 | 0.0303 | -0.0447
COc1nnc2ccc(N3CCC(c4ccc(OCCN5CCN(C)C(=O)[C@H]5C)cc4)CC3)nn12 [AZD5153] + C=CCn1c(=O)c2cnc(Nc3ccc(N4CCN(C)CC4)cc3)nc2n1-c1cccc(C(C)(C)O)n1 [AZD1775] (first compound max 1 µM, partner max 1 µM) | -0.116 | 0.0344 | -0.0488 | -0.0527 | -0.033 | -0.0101 | -0.0435 | -0.054 | 0.0001 | -0.0511 | 0.0474 | -0.0234 | -0.0421 | -0.0163 | -0.0852 | -0.0574 | -0.0224 | -0.0434 | -0.0578 | -0.0311
Cc1cc2ncnn2cc1Nc1ncc2c(n1)n(C1CCOCC1)c(=O)n2C [AZD7648] + C[C@@H]1COCCN1C2=NC(=NC(=C2)C3(CC3)[S@](=N)(=O)C)C4=C5C=CNC5=NC=C4 [AZD6738] (first compound max 10 µM, 7x7, partner max 10 µM) | -0.0465 | 0.024 | 0.0031 | 0.0271 | 0.0229 | 0.0359 | 0.0572 | -0.0272 | -0.0191 | -0.018 | 0.0367 | 0.0025 | -0.0207 | 0 | -0.0527 | 0.0126 | 0.0386 | 0.0093 | -0.0367 | -0.0284
COc1nnc2ccc(N3CCC(c4ccc(OCCN5CCN(C)C(=O)[C@H]5C)cc4)CC3)nn12 [AZD5153] + Cn1cnc2c(F)c(Nc3ccc(Br)cc3Cl)c(C(=O)NOCCO)cc21 [Selumetinib] (first compound max 1 µM, 7x7, partner max 10 µM) | -0.14 | -0.0221 | 0.007 | 0.0484 | -0.0464 | 0.0294 | 0.0345 | -0.0187 | 0.0012 | 0.0533 | -0.085 | -0.0274 | 0.0472 | 0.0143 | -0.0134 | -0.0296 | -0.113 | 0.0049 | -0.0224 | 0.0757
CC(=O)c1c(C)c2cnc(Nc3ccc(N4CCNCC4)cn3)nc2n(C2CCCC2)c1=O [Palbociclib] + CC1(C)CCC(CN2CCN(c3ccc(C(=O)NS(=O)(=O)c4ccc(NCC5CCOCC5)c([N+](=O)[O-])c4)c(Oc4cnc5[nH]ccc5c4)c3)CC2)=C(c2ccc(Cl)cc2)C1 [Venetoclax] (first compound max 10 µM, 7x7, partner max 1 µM) | -0.0899 | 0.0133 | -0.0198 | 0.083 | -0.0214 | 0.011 | -0.0219 | -0.0492 | -0.019 | 0.0322 | -0.0079 | -0.0053 | -0.0205 | 0.0042 | -0.0614 | -0.0608 | -0.0314 | -0.0357 | -0.0585 | 0.0201
COc1nnc2ccc(N3CCC(c4ccc(OCCN5CCN(C)C(=O)[C@H]5C)cc4)CC3)nn12 [AZD5153] + CCN(CCO)CCCOc1ccc2c(Nc3cc(CC(=O)Nc4cccc(F)c4)[nH]n3)ncnc2c1 [AZD2811] (first compound max 1 µM, 7x7, partner max 1 µM) | -0.0571 | -0.154 | -0.0017 | 0.0305 | -0.05 | -0.0117 | 0.0089 | -0.0767 | -0.0165 | -0.0563 | -0.0508 | 0.0056 | 0.0134 | -0.0274 | 0.0152 | -0.0285 | -0.075 | 0.0413 | -0.0068 | 0.0006
Cc1cc2ncnn2cc1Nc1ncc2c(n1)n(C1CCOCC1)c(=O)n2C [AZD7648] + CN(C)CCCOc1ccc(-c2ccc3ncc4c(c3c2)n(C2CCOCC2)c(=O)n4C)cn1 [AZD0156] (first compound max 10 µM, 7x7, partner max 1 µM) | -0.0092 | 0.0161 | 0.0186 | 0.0007 | 0.0024 | -0.0209 | 0.029 | -0.056 | -0.0665 | 0.0024 | -0.0164 | -0.0108 | 0.0066 | 0.0224 | -0.0324 | -0.0173 | 0.0285 | 0.0169 | 0.0125 | -0.0024
Cc1c2c(nn1C)CSCc1cc(n(C)n1)CSc1cc(c3ccccc3c1)OCCCc1c(C(=O)O)n(C)c3c-2c(Cl)ccc13 [AZD5991] + CC1(C)CCC(CN2CCN(c3ccc(C(=O)NS(=O)(=O)c4ccc(NCC5CCOCC5)c([N+](=O)[O-])c4)c(Oc4cnc5[nH]ccc5c4)c3)CC2)=C(c2ccc(Cl)cc2)C1 [Venetoclax] (first compound max 1 µM, 7x7, partner max 1 µM) | 0.116 | -0.0463 | 0.0054 | 0.154 | -0.0396 | 0.0111 | -0.0082 | -0.0596 | -0.0597 | -0.0014 | 0.0236 | 0.117 | -0.0033 | -0.034 | -0.005 | -0.0251 | 0.0047 | 0.227 | -0.0267 | -0.0185
COc1cccc2c1C(=O)c1c(O)c3c(c(O)c1C2=O)C[C@@](O)(C(=O)CO)C[C@@H]3O[C@H]1C[C@H](N)[C@H](O)[C@H](C)O1 [Doxorubicin] + Cc1cc2ncnn2cc1Nc1ncc2c(n1)n(C1CCOCC1)c(=O)n2C [AZD7648] (first compound max 1 µM, 7x7, partner max 10 µM) | 0.0824 | -0.0064 | 0.0728 | 0.0893 | 0.0263 | 0.0258 | 0.076 | -0.0211 | 0.027 | 0.0914 | 0.0572 | 0.117 | 0.0406 | 0.082 | -0.003 | -0.0383 | 0.0113 | 0.002 | 0.0213 | 0.121
CC(=O)c1c(C)c2cnc(Nc3ccc(N4CCNCC4)cn3)nc2n(C2CCCC2)c1=O [Palbociclib] + CN(CC[C@H](CSC1=CC=CC=C1)NC2=C(C=C(C=C2)S(=O)(=O)NC(=O)C3=CC=C(C=C3)N4CCC(CC4)[C@H](C5=CC=CC=C5C6=CC=C(C=C6)Cl)O)S(=O)(=O)C(F)(F)F)CCO [AZD4320] (first compound max 10 µM, 7x7, partner max 1 µM) |  | -0.0566 | -0.0307 |  | -0.0712 | -0.0783 | -0.0649 |  |  | 0.0279 | -0.0292 | -0.0446 |  | -0.0388 |  | -0.0489 | -0.0742 |  |  | 
C=CCn1c(=O)c2cnc(Nc3ccc(N4CCN(C)CC4)cc3)nc2n1-c1cccc(C(C)(C)O)n1 [AZD1775] + C[C@@H]1COCCN1C2=NC(=NC(=C2)C3(CC3)[S@](=N)(=O)C)C4=C5C=CNC5=NC=C4 [AZD6738] (first compound max 1 µM, partner max 10 µM) | 0.0296 | 0.0402 | -0.005 | 0.025 | 0.101 | 0.0057 | 0.0105 | -0.0662 | -0.0531 |  | -0.0303 | 0.0441 | 0.0428 | 0.109 | 0.0245 | -0.0093 | -0.0151 | -0.0012 | 0.0223 | 0.0054
